This is an account of results in patent publication US8658642B2 (Axikin Pharmaceuticals, Inc., priority 2009, dated 2014).

For orientation: Ki means the dissociation constant of the complex between target and ligand, obtained from inhibition or displacement. A higher Ki goes with a looser hold on the target.

Each structure is given as a SMILES string.

For the assay, the target named is T1, CCR3 (Homo sapiens, UniProt P51677).
T1 sequence (P51677 1-355): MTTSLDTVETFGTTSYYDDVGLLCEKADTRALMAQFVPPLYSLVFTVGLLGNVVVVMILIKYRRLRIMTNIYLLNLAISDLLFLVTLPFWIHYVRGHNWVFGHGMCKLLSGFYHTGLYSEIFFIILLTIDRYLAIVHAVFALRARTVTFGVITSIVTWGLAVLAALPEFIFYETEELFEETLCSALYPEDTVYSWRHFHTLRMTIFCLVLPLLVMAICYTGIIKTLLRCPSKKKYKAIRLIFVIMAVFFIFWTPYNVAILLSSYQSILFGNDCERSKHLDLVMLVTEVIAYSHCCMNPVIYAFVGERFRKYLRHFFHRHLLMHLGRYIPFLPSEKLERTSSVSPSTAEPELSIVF
Put plainly: CCR3 receptor binding assay ([125I]-labeled human eotaxin/CCL11 displacement on cells). As to conditions: 0.1 nM [125I]-labeled human eotaxin/CCL11, 2×10^5 cells/well, 60 min at room temperature. As for the experimental part: CCR3 Receptor Binding Assay
Cells were washed once with PBS and resuspended in a binding buffer (25 mM HEPES pH 7.6, 5 mM MgCl2, 1 mM CaCl2, 0.5% BSA, 0.1% NaN3). […] of cell suspension (2×10^5 cells/well) and 0.1 nM [^125I]-labeled human eotaxin/CCL11 (2000 Ci/mmol specific activity) were mixed in a 96-well U-bottom polypropylene plate, and incubated for 60 min at room temperature for the binding reaction. The cell suspension was then transferred to a filtration plate (#MAFB, Millipore), and washed 3 times with the binding buffer containing 0.5 M NaCl, scintillant added, and the radioactivity was counted on a TopCount (Packard). For the determination of non-specific binding, the cell suspension and [^125I]-labeled human eotaxin/CCL11 were incubated in the presence of 500 nM of unlabeled human eotaxin/CCL11. See, lino et al., “Molecular cloning and functional characterization of cynomolgus monkey (Macaca fascicularis) CC chemokine receptor, CCR3,” Cytokine 2002, 19, 276-286.
In turn, `N#Cc1ccc(Oc2cc(Cl)cc(Cl)c2)c(S(=O)(=O)N2CCN(C(=O)NCc3ccco3)CC2)c1` [Compound 135] returned an inhibitory constant (Ki) of at most 0.05 µM.
For `N#Cc1ccc(Oc2cc(Cl)cc(Cl)c2)c(S(=O)(=O)N2CCN(C(=S)NCc3ccco3)CC2)c1` [Compound 136], the Ki is at most 0.05 µM.
In turn, `N#Cc1ccc(Oc2cc(Cl)cc(Cl)c2)c(S(=O)(=O)N2CCN(C(=S)NCCN3CCOCC3)CC2)c1` [Compound 137] displayed an inhibitory constant (Ki) of 0.05 to 0.5 µM.
Consider `Cc1ccsc1C(=O)N1CCN(S(=O)(=O)c2cc(C#N)ccc2Oc2cc(Cl)cc(Cl)c2)CC1` [Compound 138], for which the Ki is 0.05 to 0.5 µM.
Take `Cc1nnsc1C(=O)N1CCN(S(=O)(=O)c2cc(C#N)ccc2Sc2cc(Cl)cc(Cl)c2)CC1` [Compound 139]: the Ki was at most 0.05 µM.
For `CC(=O)c1cccc(NC(=O)N2CCN(S(=O)(=O)c3cc(C#N)ccc3Oc3cc(Cl)cc(Cl)c3)CC2)c1` [Compound 140], the Ki is at most 0.05 µM.
For the compound `N#Cc1ccc(Oc2cc(Cl)cc(Cl)c2)c(S(=O)(=O)N2CCN(C(=O)CCCCl)CC2)c1` [Compound 141], the Ki is at most 0.05 µM.
With `N#Cc1ccc(Oc2cc(Cl)cc(Cl)c2)c(S(=O)(=O)N2CCN(C(=O)NCCCl)CC2)c1` [Compound 142] the figure was 0.05 to 0.5 µM; with `CCOC(=O)CCNC(=S)N1CCN(S(=O)(=O)c2cc(C#N)ccc2Oc2cc(Cl)cc(Cl)c2)CC1` [Compound 143], 0.05 to 0.5 µM; with `N#Cc1ccc(Oc2cc(Cl)cc(Cl)c2)c(S(=O)(=O)N2CCN(C(=S)Nc3ccccc3)CC2)c1` [Compound 144], at most 0.05 µM.
`N#Cc1ccc(Oc2cc(Cl)cc(Cl)c2)c(S(=O)(=O)N2CCN(C(=S)NC(=O)c3ccccc3)CC2)c1` [Compound 145]: the Ki is at most 0.05 µM.
Next, `CSCCCNC(=S)N1CCN(S(=O)(=O)c2cc(C#N)ccc2Oc2cc(Cl)cc(Cl)c2)CC1` [Compound 146]: at most 0.05 µM; `N#Cc1ccc(Oc2cc(Cl)cc(Cl)c2)c(S(=O)(=O)N2CCN(C(=S)NC(=O)/C=C/c3ccccc3)CC2)c1` [Compound 147]: above 5 µM.
Next, `N#CCC(=O)N1CCN(S(=O)(=O)c2cc(C#N)ccc2Oc2cc(Cl)cc(Cl)c2)CC1` [Compound 148]: 0.05 to 0.5 µM; `N#Cc1ccc(Oc2cc(Cl)cc(Cl)c2)c(S(=O)(=O)N2CCN(C(=S)NCc3cccc(Cl)c3)CC2)c1` [Compound 149]: above 5 µM; `C=CNC(=O)N1CCN(S(=O)(=O)c2cc(C#N)ccc2Oc2cc(Cl)cc(Cl)c2)CC1` [Compound 150]: above 5 µM.
On to `CC(C)CC(=O)N1CCN(S(=O)(=O)c2cc([N+](=O)[O-])ccc2Sc2cc(Cl)ccc2Cl)CC1` [Compound 152, 1-(4-(2-(2,5-Dichlorophenylthio)-5-nitrophenylsulfonyl)piperazin-1-yl)-3-methylbutan-1-one], for which the Ki was above 5 µM.
Regarding `O=C(c1ccc(C(F)(F)F)cc1)N1CCN(S(=O)(=O)c2cc([N+](=O)[O-])ccc2Sc2cc(Cl)ccc2Cl)CC1` [Compound 153, (4-(2-(2,5-Dichlorophenylthio)-5-nitrophenylsulfonyl)piperazin-1-yl)(4-(trifluoromethyl)phenyl)methanone], the Ki is above 5 µM.
Turning to `N/C(=N\[N+](=O)[O-])N1CCN(S(=O)(=O)c2cc([N+](=O)[O-])ccc2Oc2cc(Cl)cc(Cl)c2)CC1` [Compound 154], the inhibition constant (Ki) is above 5 µM.
As for `N#Cc1ccc(Oc2cc(Cl)cc(Cl)c2)c(S(=O)(=O)N2CCN(C(=O)Oc3ccc([N+](=O)[O-])cc3)CC2)c1` [Compound 155], the inhibitory constant (Ki) is above 5 µM.
Take `COc1ccc(OC(=O)N2CCN(S(=O)(=O)c3cc(C#N)ccc3Oc3cc(Cl)cc(Cl)c3)CC2)cc1` [Compound 156]: the Ki is above 5 µM.
On to `Cc1ccc(OC(=O)N2CCN(S(=O)(=O)c3cc(C#N)ccc3Oc3cc(Cl)cc(Cl)c3)CC2)cc1` [Compound 157], for which the Ki is above 5 µM.
Turning to `N#Cc1ccc(Oc2cc(Cl)cc(Cl)c2)c(S(=O)(=O)N2CCN(C(=O)OCCCCCl)CC2)c1` [Compound 158], the Ki was above 5 µM.
`C=CCOC(=O)N1CCN(S(=O)(=O)c2cc(C#N)ccc2Oc2cc(Cl)cc(Cl)c2)CC1` [Compound 159] came in with an inhibitory constant (Ki) above 5 µM.
`O=C(CCCCl)N1CCN(S(=O)(=O)c2cc([N+](=O)[O-])ccc2Sc2cc(Cl)ccc2Cl)CC1` [Compound 160, 4-Chloro-1-(4-(2-(2,5-dichlorophenylthio)-5-nitrophenylsulfonyl)piperazin-1-yl)butan-1-one]: the inhibition constant Ki was above 5 µM.
With `O=C(C1CCC1)N1CCN(S(=O)(=O)c2cc([N+](=O)[O-])ccc2Sc2cc(Cl)ccc2Cl)CC1` [Compound 161, Cyclobutyl(4-(2-(2,5-dichlorophenylthio)-5-nitrophenylsulfonyl)piperazin-1-yl)methanone] the figure was above 5 µM.
With `O=C(C1CCCCC1)N1CCN(S(=O)(=O)c2cc([N+](=O)[O-])ccc2Sc2cc(Cl)ccc2Cl)CC1` [Compound 162, Cyclohexyl(4-(2-(2,5-dichlorophenylthio)-5-nitrophenylsulfonyl)piperazin-1-yl)methanone] the figure was above 5 µM; with `O=C(c1ccccc1)N1CCN(S(=O)(=O)c2cc([N+](=O)[O-])ccc2Sc2cc(Cl)ccc2Cl)CC1` [Compound 163, (4-(2-(2,5-Dichlorophenylthio)-5-nitrophenylsulfonyl)piperazin-1-yl)(phenyl)methanone], above 5 µM; with `O=C(c1ccc(Cl)cc1)N1CCN(S(=O)(=O)c2cc([N+](=O)[O-])ccc2Sc2cc(Cl)ccc2Cl)CC1` [Compound 164, (4-Chlorophenyl)(4-(2-(2,5-dichlorophenylthio)-5-nitrophenylsulfonyl)-piperazin-1-yl)methanone], above 5 µM.
For `COc1ccc(C(=O)N2CCN(S(=O)(=O)c3cc([N+](=O)[O-])ccc3Sc3cc(Cl)ccc3Cl)CC2)cc1` [Compound 165, (4-Methoxyphenyl)(4-(2-(2,5-dichlorophenylthio)-5-nitrophenylsulfonyl)-piperazin-1-yl)methanone], the Ki is above 5 µM.
As for `Cc1ccc(C)c(Sc2ccc([N+](=O)[O-])cc2S(=O)(=O)N2CCN(C(=O)c3ccc(Cl)cc3)CC2)c1` [Compound 173, (4-Chlorophenyl)(4-(2-(2,5-dimethylphenylthio)-5-nitrophenylsulfonyl)-piperazin-1-yl)methanone], the Ki is above 5 µM.
With `COc1ccc(C(=O)N2CCN(S(=O)(=O)c3cc([N+](=O)[O-])ccc3Sc3cc(C)ccc3C)CC2)cc1` [Compound 174, (4-(2-(2,5-Dimethylphenylthio)-5-nitrophenylsulfonyl)piperazin-1-yl)(4-methoxyphenyl)methanone] the figure was above 5 µM.
In turn, `CC(C)CC(=O)N1CCN(S(=O)(=O)c2cc([N+](=O)[O-])ccc2Oc2cc(Cl)ccc2Cl)CC1` [Compound 177, 1-(4-(2-(2,5-Dichlorophenoxy)-5-nitrophenylsulfonyl)piperazin-1-yl)-3-methylbutan-1-one] yielded a Ki above 5 µM.
Take `COc1ccc(C(=O)N2CCN(S(=O)(=O)c3cc([N+](=O)[O-])ccc3Oc3cc(Cl)ccc3Cl)CC2)cc1` [Compound 184, (4-(2-(2,5-Dichlorophenoxy)-5-nitrophenylsulfonyl)piperazin-1-yl)(4-methoxyphenyl)methanone]: the Ki was above 5 µM.
As to `O=C(c1ccco1)N1CCN(S(=O)(=O)c2cc([N+](=O)[O-])ccc2Oc2cc(Cl)ccc2Cl)CC1` [Compound 185, (4-(2-(2,5-Dichlorophenoxy)-5-nitrophenylsulfonyl)piperazin-1-yl)(furan-2-yl)methanone], the inhibition constant Ki was above 5 µM.
As to `COc1ccc(C(=O)N2CCN(S(=O)(=O)c3cc([N+](=O)[O-])ccc3Oc3cc(C)ccc3C)CC2)cc1` [Compound 189, (4-(2-(2,5-Dimethylphenoxy)-5-nitrophenylsulfonyl)piperazin-1-yl)(4-methoxyphenyl)methanone], the Ki was above 5 µM.
With `Cc1ccc(C)c(Oc2ccc([N+](=O)[O-])cc2S(=O)(=O)N2CCN(C(=O)c3ccco3)CC2)c1` [Compound 190, (4-(2-(2,5-Dimethylphenoxy)-5-nitrophenylsulfonyl)piperazin-1-yl)(furan-2-yl)methanone], the Ki is above 5 µM.
`C=CCNC(=O)N1CCN(S(=O)(=O)c2cc([N+](=O)[O-])ccc2Sc2cc(Cl)ccc2Cl)CC1` [Compound 191, N-Allyl-4-(2-(2,5-dichlorophenylthio)-5-nitrophenylsulfonyl)piperazine-1-carboxamide] registered a Ki of at most 0.05 µM.
Turning to `Cc1ccc(NC(=O)N2CCN(S(=O)(=O)c3cc([N+](=O)[O-])ccc3Sc3cc(Cl)ccc3Cl)CC2)cc1` [Compound 193, 4-(2-(2,5-Dichlorophenylthio)-5-nitrophenylsulfonyl)-N-p-tolylpiperazine-1-carboxamide], the Ki was above 5 µM.
With `N#Cc1ccc(NC(=O)N2CCN(S(=O)(=O)c3cc([N+](=O)[O-])ccc3Sc3cc(Cl)ccc3Cl)CC2)cc1` [Compound 194, N-(4-Cyanophenyl)-4-(2-(2,5-dichlorophenylthio)-5-nitrophenylsulfonyl)-piperazine-1-carboxamide] the figure was above 5 µM.
